{"source": "paper PMC8366681", "about": "(Cancer chemotherapy and pharmacology, 2013)", "biological_target": "ABCB1 (Homo sapiens, UniProt P08183)", "sequence (P08183 whole entry)": "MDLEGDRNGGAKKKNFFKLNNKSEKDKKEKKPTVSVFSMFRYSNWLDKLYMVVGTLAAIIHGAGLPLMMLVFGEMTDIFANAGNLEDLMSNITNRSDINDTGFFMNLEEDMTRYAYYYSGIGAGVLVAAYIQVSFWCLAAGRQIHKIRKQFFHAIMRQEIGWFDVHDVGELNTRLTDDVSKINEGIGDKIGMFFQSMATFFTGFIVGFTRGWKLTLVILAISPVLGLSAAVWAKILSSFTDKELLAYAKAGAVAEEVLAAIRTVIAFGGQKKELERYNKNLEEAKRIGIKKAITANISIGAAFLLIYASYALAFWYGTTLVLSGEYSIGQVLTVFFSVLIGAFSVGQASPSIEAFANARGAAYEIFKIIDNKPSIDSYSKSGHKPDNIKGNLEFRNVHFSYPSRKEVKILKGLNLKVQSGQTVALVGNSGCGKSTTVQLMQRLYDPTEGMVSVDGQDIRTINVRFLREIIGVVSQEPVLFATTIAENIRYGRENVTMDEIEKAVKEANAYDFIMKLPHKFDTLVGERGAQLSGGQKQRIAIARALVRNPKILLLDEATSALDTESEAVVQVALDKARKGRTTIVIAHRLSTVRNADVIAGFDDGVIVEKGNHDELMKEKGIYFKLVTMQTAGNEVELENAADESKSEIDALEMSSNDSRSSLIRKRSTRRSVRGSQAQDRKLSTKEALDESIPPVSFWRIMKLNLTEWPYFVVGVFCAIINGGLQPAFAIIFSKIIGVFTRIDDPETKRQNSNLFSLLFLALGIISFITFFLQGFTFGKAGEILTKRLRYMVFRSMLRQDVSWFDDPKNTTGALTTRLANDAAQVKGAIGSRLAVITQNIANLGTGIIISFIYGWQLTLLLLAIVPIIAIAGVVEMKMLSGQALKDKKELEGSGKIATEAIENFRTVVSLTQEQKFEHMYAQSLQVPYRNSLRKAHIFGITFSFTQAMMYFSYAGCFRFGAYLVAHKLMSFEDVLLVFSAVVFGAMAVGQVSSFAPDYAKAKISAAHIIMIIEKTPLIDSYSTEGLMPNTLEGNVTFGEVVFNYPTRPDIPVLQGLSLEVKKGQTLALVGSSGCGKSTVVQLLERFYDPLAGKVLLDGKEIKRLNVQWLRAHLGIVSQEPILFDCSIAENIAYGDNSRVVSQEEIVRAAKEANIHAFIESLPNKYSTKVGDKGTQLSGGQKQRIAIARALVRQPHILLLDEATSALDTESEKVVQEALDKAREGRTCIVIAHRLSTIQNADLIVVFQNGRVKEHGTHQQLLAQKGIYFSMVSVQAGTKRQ", "assay_type": "biochemical", "data": [{"smiles": "CCN(CC)CCCCNc1ncc2cc(-c3cc(OC)cc(OC)c3)c(NC(=O)NC(C)(C)C)nc2n1", "note": "[PD173074]", "values": [{"measurement": "vanadate-sensitive ATPase stimulation in crude membranes of High-five cells expr", "value": "2.5 to 5", "unit": "µM"}]}]}
